According to patent publication US20100267561A1, “HERBICIDAL PYRIDAZINONE DERIVATIVES” (priority 2007, published 2010):

What was measured:
Type in all cases: in vivo
[1] = tested on: barnyardgrass (Echinochloa crus-galli); experiment: Test A pre-/postemergence plant response
Summary of the method: (§1)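 Ratings are visual, 0–100, where 100 means complete control and 0 no effect, taken roughly 10 days after treatment by comparison with untreated controls. Formulation: non-phytotoxic solvent mixture with surfactant.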

[2] = tested on: large crabgrass (Digitaria sanguinalis); experiment: Test A pre-/postemergence plant response
Summary of the method: as §1

[3] = tested on: morningglory (Ipomoea coccinea); experiment: Test A pre-/postemergence plant response
Summary of the method: as §1

[4] = tested on: pigweed (Amaranthus retroflexus); experiment: Test A pre-/postemergence plant response
Summary of the method: as §1

[5] = tested on: velvetleaf (Abutilon theophrasti); experiment: Test A pre-/postemergence plant response
Summary of the method: as §1

[6] = tested on: wheat (Triticum aestivum); experiment: Test A pre-/postemergence plant response
Summary of the method: as §1

[7] = tested on: barnyardgrass (Echinochloa crus-galli); experiment: Test B flooded paddy test plant response
Summary of the method: (§2)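 Paddy-water application to 2-leaf plants in pots held under 3 cm of flooding; response is a 0–100 visual control rating against controls after 13 to 15 days, and a dash marks a missing result.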

[8] = tested on: ducksalad (Heteranthera limosa); experiment: Test B flooded paddy test plant response
Summary of the method: as §2

rice (Oryza sativa) = experiment: Test B flooded paddy test plant response
Summary of the method: as §2

[9] = tested on: umbrella sedge (Cyperus difformis); experiment: Test B flooded paddy test plant response
Summary of the method: as §2

[10] = Postemergence, 125 g ai/ha, 0 to 100 scale, 0 no effect, 100 complete control
[11] = Postemergence, 500 g ai/ha, 0 to 100 scale, 0 no effect, 100 complete control
[12] = Preemergence, 125 g ai/ha, 0 to 100 scale (0 no effect, 100 complete control)
[13] = Preemergence, 500 g ai/ha, 0 to 100 scale (0 no effect, 100 complete control)
[14] = Flood (flooded paddy test), 62 g ai/ha, scale 0 to 100, 0 no effect, 100 complete control
[15] = Flood (flooded paddy test), 125 g ai/ha, scale 0 to 100, 0 no effect, 100 complete control
[16] = Flood (flooded paddy test), 250 g ai/ha, scale 0 to 100, 0 no effect, 100 complete control
[17] = Flood, 31 g ai/ha, scale 0 to 100
[18] = Postemergence, 31 g ai/ha, 0 to 100 scale, 0 no effect, 100 complete control
[19] = Preemergence, 31 g ai/ha, 0 to 100 scale, 0 is no effect, 100 is complete control

| SMILES | Plant response rating, Barnyardgrass [1, 10] | Plant response rating, Barnyardgrass [1, 12] | Plant response rating, Crabgrass, Large [2, 10] | Plant response rating, Crabgrass, Large [2, 12] | Plant response rating, Morningglory [3, 10] | Plant response rating, Morningglory [3, 12] | Plant response rating, Pigweed [4, 10] | Plant response rating, Pigweed [4, 12] | Plant response rating, Velvetleaf [5, 10] | Plant response rating, Velvetleaf [5, 12] | Plant response rating, Wheat [6, 10] | Plant response rating, Wheat [6, 12] | Plant response rating, Barnyardgrass [7, 14] | Plant response rating, Barnyardgrass [7, 15] | Plant response rating, Barnyardgrass [7, 16] | Plant response rating, Barnyardgrass [7, 17] | Plant response rating, Ducksalad [8, 14] | Plant response rating, Ducksalad [8, 15] | Plant response rating, Ducksalad [8, 16] | Plant response rating, Rice (rice (Oryza sativa); [14]) | further results |
| --- | --- | --- | --- | --- | --- | --- | --- | --- | --- | --- | --- | --- | --- | --- | --- | --- | --- | --- | --- | --- | --- |
| Cc1cc(-c2ccc(C(F)(F)F)cc2)nn1-c1c(O)c(C(C)C)nn(C)c1=O [Compound 27] | 20 | 80 | 60 | 80 | 0 | 0 | 0 | 0 | 0 | 0 | 50 | 40 | 0 | 0 | 30 | 0 | 40 | 60 | 75 | 0 | Plant response rating, Barnyardgrass [1, 11]: 90; Plant response rating, Barnyardgrass [1, 13]: 100; Plant response rating, Crabgrass, Large [2, 11]: 80; Plant response rating, Crabgrass, Large [2, 13]: 100; Plant response rating, Morningglory [3, 11]: 0; Plant response rating, Morningglory [3, 13]: 0; Plant response rating, Pigweed [4, 11]: 0; Plant response rating, Pigweed [4, 13]: 0; Plant response rating, Velvetleaf [5, 11]: 0; Plant response rating, Velvetleaf [5, 13]: 0; Plant response rating, Wheat [6, 11]: 90; Plant response rating, Wheat [6, 13]: 100; Plant response rating, Ducksalad [8, 17]: 0; Plant response rating, Rice (rice (Oryza sativa); [15]): 0; Plant response rating, Rice (rice (Oryza sativa); [16]): 0; Plant response rating, Rice (rice (Oryza sativa); [17]): 0; Plant response rating, Sedge, Umbrella [9, 14]: 20; Plant response rating, Sedge, Umbrella [9, 15]: 30; Plant response rating, Sedge, Umbrella [9, 16]: 65; Plant response rating, Sedge, Umbrella [9, 17]: 20 |
| Cc1ccc(-c2ccc(Cl)cc2)cc1-c1c(O)cnn(C)c1=O [Compound 46] | 50 | 100 | 40 | 90 | 0 | 0 | 0 | 0 | 0 | 0 | 30 | 50 | 0 | 30 | 40 | 0 | 30 | 45 | 85 | 0 | Plant response rating, Barnyardgrass [1, 18]: 0; Plant response rating, Barnyardgrass [1, 19]: 40; Plant response rating, Crabgrass, Large [2, 18]: 0; Plant response rating, Crabgrass, Large [2, 19]: 10; Plant response rating, Morningglory [3, 18]: 0; Plant response rating, Morningglory [3, 19]: 0; Plant response rating, Pigweed [4, 18]: 0; Plant response rating, Pigweed [4, 19]: 0; Plant response rating, Velvetleaf [5, 18]: 0; Plant response rating, Velvetleaf [5, 19]: 0; Plant response rating, Wheat [6, 18]: 0; Plant response rating, Wheat [6, 19]: 0; Plant response rating, Rice (rice (Oryza sativa); [15]): 20; Plant response rating, Rice (rice (Oryza sativa); [16]): 35; Plant response rating, Rice (rice (Oryza sativa); [17]): 0; Plant response rating, Sedge, Umbrella [9, 14]: 50; Plant response rating, Sedge, Umbrella [9, 15]: 60; Plant response rating, Sedge, Umbrella [9, 16]: 75; Plant response rating, Sedge, Umbrella [9, 17]: 40 |
| Cc1cc(-c2ccc(Cl)cc2)nn1-c1c(OS(=O)(=O)c2cccc3ccccc23)cnn(C)c1=O [Compound 47] | 40 | 80 | 50 | 90 | 0 | 0 | 0 | 0 | 0 | 0 | 10 | 40 | 0 | 0 | 0 | 0 | 0 | 0 | 0 | 0 | Plant response rating, Barnyardgrass [1, 18]: 0; Plant response rating, Barnyardgrass [1, 19]: 20; Plant response rating, Crabgrass, Large [2, 18]: 10; Plant response rating, Crabgrass, Large [2, 19]: 10; Plant response rating, Morningglory [3, 18]: 0; Plant response rating, Morningglory [3, 19]: 0; Plant response rating, Pigweed [4, 18]: 0; Plant response rating, Pigweed [4, 19]: 0; Plant response rating, Velvetleaf [5, 18]: 0; Plant response rating, Velvetleaf [5, 19]: 0; Plant response rating, Wheat [6, 18]: 0; Plant response rating, Wheat [6, 19]: 0; Plant response rating, Ducksalad [8, 17]: 0; Plant response rating, Rice (rice (Oryza sativa); [15]): 0; Plant response rating, Rice (rice (Oryza sativa); [16]): 0; Plant response rating, Rice (rice (Oryza sativa); [17]): 0; Plant response rating, Sedge, Umbrella [9, 14]: 0; Plant response rating, Sedge, Umbrella [9, 15]: 0; Plant response rating, Sedge, Umbrella [9, 16]: 0; Plant response rating, Sedge, Umbrella [9, 17]: 0 |
| Cc1cc(-c2ccc(Cl)cc2)nn1-c1c(OS(=O)(=O)C(C)C)cnn(C)c1=O [Compound 50] | 70 | 100 | 40 | 90 | 0 | 0 | 0 | 0 | 0 | 0 | 20 | 50 | 0 | 0 | 0 | 0 | 0 | 0 | 0 | 0 | Plant response rating, Barnyardgrass [1, 18]: 0; Plant response rating, Barnyardgrass [1, 19]: 10; Plant response rating, Crabgrass, Large [2, 18]: 0; Plant response rating, Crabgrass, Large [2, 19]: 50; Plant response rating, Morningglory [3, 18]: 0; Plant response rating, Morningglory [3, 19]: 0; Plant response rating, Pigweed [4, 18]: 0; Plant response rating, Pigweed [4, 19]: 0; Plant response rating, Velvetleaf [5, 18]: 0; Plant response rating, Velvetleaf [5, 19]: 0; Plant response rating, Wheat [6, 18]: 0; Plant response rating, Wheat [6, 19]: 0; Plant response rating, Ducksalad [8, 17]: 0; Plant response rating, Rice (rice (Oryza sativa); [15]): 0; Plant response rating, Rice (rice (Oryza sativa); [16]): 0; Plant response rating, Rice (rice (Oryza sativa); [17]): 0; Plant response rating, Sedge, Umbrella [9, 14]: 0; Plant response rating, Sedge, Umbrella [9, 15]: 0; Plant response rating, Sedge, Umbrella [9, 16]: 0; Plant response rating, Sedge, Umbrella [9, 17]: 0 |
